From ChEMBL document CHEMBL5620383, “Advances in CD73 inhibitors for immunotherapy: Antibodies, synthetic small molecule compounds, and natural compounds” (Eur J Med Chem, 2023)

Legend:
5'-nucleotidase [1] = target: T1, 5'-nucleotidase (Homo sapiens, UniProt P21589); test: Inhibition of C-terminal 6His-tagged human recombinant CD73 expressed in CHO cells incubated for 1 hr by malachite green based spectrophotometer assay; format: cell-based
5'-nucleotidase [2] = target: T1, 5'-nucleotidase; test: Inhibition of human recombinant CD73 (27 to 549 residues) expressed in Sf9 cells
5'-nucleotidase [3] = target: T1, 5'-nucleotidase; test: Inhibition of CD73 (unknown origin)
5'-nucleotidase [4] = target: T1, 5'-nucleotidase; test: Binding affinity to human recombinant CD73 expressed in Sf9 cells assessed as inhibition constant by malachite green based spectrophotometer assay
5'-nucleotidase [5] = target: T1, 5'-nucleotidase; test: Inhibition of human CD73 expressed in A-375 cells incubated for 15 mins by malachite green based spectrophotometer assay; format: cell-based
5'-nucleotidase [6] = target: T1, 5'-nucleotidase; test: Binding affinity to human recombinant CD73 assessed as inhibition constant
Homo sapiens = species: Homo sapiens; test: Inhibition of adenosine transporter (unknown origin) at 20 uM relative to control
MDA-MB-231 [7] = test: Inhibition of cell migration in human MDA-MB-231 cells at 10 uM incubated for 48 hrs by Transwell assay; format: functional; set-up: scale not given: the % may be the effect or the level left
4T1 = test: Inhibition of cell migration in mouse 4T1 cells at 10 uM incubated for 48 hrs by Transwell assay; format: functional; set-up: scale not given: the % may be the effect or the level left
MDA-MB-231 [8] = test: Cytotoxicity against human MDA-MB-231 cells assessed as reduction in cell growth at 20 uM incubated for 48 hrs by CCK-8 assay relative to control; format: functional; set-up: scale not given: the % may be the effect or the level left
[9] = Reversal of adenosine induced reduction in IFNgamma production in human PBMC cells; format: functional, cell-based
5'-nucleotidase [10] = target: T1, 5'-nucleotidase; test: Inhibition of CD73 (unknown origin) at 20 uM relative to control
5'-nucleotidase [11] = target: T1, 5'-nucleotidase; test: Binding affinity to CD73 (unknown origin) assessed as inhibition constant

T1 sequence (P21589 whole entry, the tested form may be a part): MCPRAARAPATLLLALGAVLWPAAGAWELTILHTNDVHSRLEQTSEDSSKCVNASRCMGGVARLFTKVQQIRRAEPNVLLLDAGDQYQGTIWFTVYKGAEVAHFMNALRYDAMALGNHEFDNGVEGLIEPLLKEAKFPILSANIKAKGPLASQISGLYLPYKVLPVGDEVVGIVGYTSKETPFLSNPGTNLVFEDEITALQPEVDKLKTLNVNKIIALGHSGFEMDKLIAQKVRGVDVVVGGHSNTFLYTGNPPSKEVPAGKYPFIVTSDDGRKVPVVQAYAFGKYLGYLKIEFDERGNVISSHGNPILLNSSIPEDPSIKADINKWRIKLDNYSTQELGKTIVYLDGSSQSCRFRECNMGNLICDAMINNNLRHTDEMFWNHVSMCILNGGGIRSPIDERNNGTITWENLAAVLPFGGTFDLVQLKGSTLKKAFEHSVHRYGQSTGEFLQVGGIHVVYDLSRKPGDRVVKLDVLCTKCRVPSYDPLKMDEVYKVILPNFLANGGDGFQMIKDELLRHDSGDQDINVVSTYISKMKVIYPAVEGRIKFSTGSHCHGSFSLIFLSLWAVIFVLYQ

O=P(O)(O)CP(=O)(O)CC(O)[C@H]1O[C@@H](n2ccnn2)[C@H](O)[C@@H]1O (stereo not given in full)
IC50 (5'-nucleotidase [1]): 0.86 µM | IC50 (5'-nucleotidase [2]): 0.86 µM

C=C(C)[C@@H]1CC[C@]2(C(=O)O)CC[C@]3(C)[C@H](CC[C@@H]4[C@@]5(C)CC[C@H](OC(=O)c6c(F)c(F)c(F)c(F)c6F)C(C)(C)[C@@H]5CC[C@]43C)[C@@H]12
IC50 (5'-nucleotidase [3]): 0.47 µM

Nc1ncnc2c1ncn2COCCOP(=O)(O)CP(=O)(O)O
Ki (5'-nucleotidase [4]): 12.6 µM

COC[C@](CO)(OC[C@H]1O[C@@H](n2ncc3c(NC4CCCC4)nc(Cl)nc32)[C@H](O)[C@@H]1O)P(=O)(O)O
IC50 (5'-nucleotidase [1]): 0.25 µM

Nc1ncnc2c1ncn2[C@@H]1O[C@H](COP(=O)(O)OP(=O)(O)O)[C@@H](O)[C@H]1O [ADENOSINE DIPHOSPHATE]
IC50 (5'-nucleotidase [5]): 0.0038 µM | Ki (5'-nucleotidase [6]): 0.0884 µM

C=C[C@]1(C)C[C@@H](OC(=O)CSCCN(CC)CC)[C@]2(C)[C@H](C)CC[C@]3(CCC(=O)[C@H]32)[C@@H](C)[C@@H]1O [TIAMULIN]
inhibition (Homo sapiens): 85.7% | Activity (MDA-MB-231 [7]): 76.2% | Activity (4T1): 67.01%

Cn1c(=O)n([C@@H]2O[C@H](COP(=O)(O)OP(=O)(O)O)[C@@H](O)[C@H]2O)cc/c1=N/Oc1ccccc1
Ki (5'-nucleotidase [4]): 0.0101 µM

CCN(CC)c1nc(Cl)nc2c1ncn2[C@@H]1O[C@H](COCP(=O)(O)OP(=O)(O)C(Br)(Br)P(=O)(O)O)[C@@H](O)[C@H]1O
Ki (5'-nucleotidase [4]): 0.451 µM

C=C(C)[C@@H]1CC[C@]2(C(=O)O)CC[C@]3(C)[C@H](CC[C@@H]4[C@@]5(C)CC[C@H](OC(=O)c6ccc(F)cc6)C(C)(C)[C@@H]5CC[C@]43C)[C@@H]12
IC50 (5'-nucleotidase [3]): 0.56 µM

C=C(C)[C@@H]1CC[C@]2(C(=O)O)CC[C@]3(C)[C@H](CC[C@@H]4[C@@]5(C)CC[C@H](OC(=O)c6ccc(F)c(F)c6)C(C)(C)[C@@H]5CC[C@]43C)[C@@H]12
Activity (MDA-MB-231 [8]): 87.59% | IC50 (5'-nucleotidase [3]): 0.74 µM

O=P(O)(O)COC[C@H]1O[C@@H](n2ncc3c(N4CC5(CCc6ccccc65)C4)nc(Cl)nc32)[C@H](O)[C@@H]1O
EC50 [9]: 0.11 µM | IC50 (5'-nucleotidase [1]): 0.05 µM

C=C[C@]1(C)C[C@@H](OC(=O)CO)[C@]2(C)[C@H](C)CC[C@]3(CCC(=O)[C@H]32)[C@@H](C)[C@@H]1O
inhibition (5'-nucleotidase [10]): 70%

CN(Cc1ccccc1F)c1nc(Cl)nc2c1ncn2[C@@H]1O[C@H](COP(=O)(O)OP(=O)(O)O)[C@@H](O)[C@H]1O
Ki (5'-nucleotidase [6]): 0.000318 µM

C=C(C)[C@@H]1CC[C@]2(C(=O)O)CC[C@]3(C)[C@H](CC[C@@H]4[C@@]5(C)CC[C@H](O)C(C)(C)[C@@H]5CC[C@]43C)[C@@H]12 [BETULINIC ACID]
Ki (5'-nucleotidase [11]): 7.8 µM
